From BigSolDB 2.1

CCn1c2ccccc2c2cc(-n3nncc3-c3ccccc3)ccc21
solubility (mole fraction)
Conditions | 278.15 K | 283.15 K | 288.15 K | 293.15 K | 298.15 K | 303.15 K | 308.15 K | 313.15 K | 318.15 K | 323.15 K
in acetonitrile | 0.00173 | 0.0022 | 0.00272 | 0.00336 | 0.00412 | 0.00505 | 0.00609 | 0.00733 | 0.00897 | 0.011
in ethanol | 0.000446 | 0.000546 | 0.000674 | 0.00084 | 0.00102 | 0.00124 | 0.00151 | 0.00183 | 0.0022 | 0.00262
in isopropanol | 0.000211 | 0.000278 | 0.000371 | 0.000491 | 0.000639 | 0.000825 | 0.00105 | 0.00135 | 0.00174 | 0.00224
in n-propanol | 0.000523 | 0.000671 | 0.000837 | 0.00103 | 0.0013 | 0.00161 | 0.002 | 0.00246 | 0.00297 | 0.00357
in water | 5.79e-07 | 7.99e-07 | 1.08e-06 | 1.46e-06 | 1.96e-06 | 2.61e-06 | 3.4e-06 | 4.49e-06 | 5.81e-06 | 7.48e-06
